Here are results for one compound from patent publication US20100311674A1, “PHARMACEUTICAL COMPOSITIONS WITH A MECHANISM OF MULTI-TARGET RECEPTOR RETROACTION FOR TREATING DEPRESSION” (Yu-Fen Chi, priority 2007, published 2010).

The test system of test [1] is ICR mice. Put plainly: Resetpine-induced mouse body temperature decrease experiment (Experiment 2). The test is classed as in vivo. The text has this: 2.1 Experimental animals: ICR mice, male, 22.0±2 g of body weight, secondary, are provided by the Experimental Animal Science Department of Capital Medical University, Beijing.
2.2 Experiment pharmaceuticals: The pharmaceutical of Embodiment 1 is provided by Beijing Wonner Biotech. Ltd. Co., Paroxetine (Paxil) is the product of Thong Mei Tianjin Smith Kline pharmaceuticals Co. Ltd., and Resetpine is the product of Guangdong BangMin Pharmaceutical Co., Ltd.
2.4 Dose designs: 1. High dose of Embodiment 1 (80 mg/kg/d); 2. middle dose of Embodiment 1 (40 mg/kg/d); and 3. low dose of Embodiment 1 (20 mg/kg/d).
2.5.1 Group division and administration of drug: The mice are grouped randomly, and 10 mice are in each group. 1. High dose of Embodiment 1 (80 mg/kg, P.O., administered for 7 days); 2. middle dose of Embodiment 1 (40 mg/kg, P.O., administered for 7 days); 3. low dose of Embodiment 1 (20 mg/kg, P.O., administered for 7 days); 4.
2.5.2 Experimental method: After 1 hour of the last administration of drug on the eighth day, the mouse's anal temperature is determined. […] After 4 hours of injecting Resetpine, the mouse's anal temperature is determined once again. […]
2.5.3 Statistic calculation: The experimental data are represented as X±SD, and the experimental result is calculated as ANOVA by SPSS 11.5 statistic software.

Test [2] has as its system ICR mice. Briefly: Resetpine-induced mouse body temperature decrease experiment (Experiment 6). The test is classed as in vivo. The source says:
6.1 Experimental animals: ICR mice, male, 22.0±2 g of body weight, secondary, are provided by the Experimental Animal Science Department of Capital Medical University, Beijing.
6.2 Experiment pharmaceuticals: The pharmaceutical of Embodiment 3 is provided by Beijing Wonner Biotech. Ltd. Co., Paroxetine (Paxil) is the product of Zhong Mei Tianjin Smith Kline pharmaceuticals Co. Ltd., and Resetpine is the product of Guangdong BangMin Pharmaceutical Co., Ltd.
6.4 Dose designs: 1. High dose of Embodiment 3 (80 mg/kg/d); 2. middle dose of Embodiment 3 (40 mg/kg/d); and 3. low dose of Embodiment 3 (20 mg/kg/d).
6.5.1 Group division and administration of drug: The mice are grouped randomly, and 10 mice are in each group. 1. High dose of Embodiment 3 (80 mg/kg, P.O., administered for 7 days); 2. middle dose of Embodiment 3 (40 mg/kg, P.O., administered for 7 days); 3. low dose of Embodiment 3 (20 mg/kg, P.O., administered for 7 days); 4.
6.5.2 Experimental method: After 1 hour of the last administration of drug on the eighth day, the mouse's anal temperature is determined. […] After 4 hours of injecting Resetpine, the mouse's anal temperature is determined once again. […]
6.5.3 Statistic calculation: The experimental data are represented as X±SD, and the experimental result is calculated as ANOVA by SPSS 11.5 statistic software.

Test [3] concerns unpredictable long-term stimulus model. Put plainly: Open field activity experiment, unpredictable long-term stimulus model (Experiment 8). The test is classed as in vivo, rat. The settings on record: 2 mg/kg/d into the stomach, 24 days; within 3 minutes. The source says: 7.5.1 Open field activity experiment: The open field activity box (1 m×1 m×0.4 m) is constructed by the light blue plywood and the aluminum alloy frame. The box bottom is separated into 25 grids (20 cm×20 cm for each grid), the circumference is the peripheral grids (16 grids), and others are the central grids (9 grids). The rat is placed in the center of the central grids, and the rat's cross-grid number (the number of crossing into the neighboring gird more than 3 claws) and rat's standing number (two forelimbs leaving the ground for more than 1 cm) are calculated/observed within 3 minutes.
Unpredictable long-term stimulus model: Health Wistar male rats, secondary, 240˜270 g of body weight, are purchased from Beijing Vital River Experimental Animal Technology Ltd. Co. (The quality certificate number: SOCK (JING) 2002-2003).
The above pharmaceuticals are prepared with 0.5% of sodium carboxymethylcellulose (CMC-Na) for feeding into the stomach. Benzylpenicillin sodium for injection is the product of North China Pharmaceutical Huasheng Co. Ltd. (Lot: S0511204), and norepinephrine (NE) and 5-hydrotryptamine (5-HT) standards are the products of Sigma Co. Other reagents are all marketed. […]
8.6 Statistic calculation: The experimental data are represented as […], and the experimental result is calculated as ANOVA by SPSS 11.5 statistic software.

Setting [4] is: 3 mg/kg P.O. 7 days, 4 h after Resetpine 2 mg/kg i.p.

Take `Fc1ccc([C@@H]2CCNC[C@H]2COc2ccc3c(c2)OCO3)cc1` [Paroxetine]: the Decreased temperature with ICR mice [1] (setting [4]) and in the test on ICR mice [2] (setting [4]) was 2.38 ± 0.69 °C each time. The “Effect on reduced body temperature induced by Resetpine (in words)” value with ICR mice [1] (high, middle and low doses of Embodiment 1, Paroxetine) is listed as “decrease the reduced body temperature induced by Resetpine”; in the test with ICR mice [2] (high, middle and low doses of Embodiment 3, Paroxetine), “decrease the reduced body temperature induced by Resetpine”. In addition, the “Horizontal movement (cross-grid number)” value in test [3] is 61.85 ± 21.68. In addition, the “Vertical movement (standing number)” value in test [3] is given as 14.69 ± 4.2.
